From ChEMBL document CHEMBL6071133, “Discovery of novel penetrating peptides able to target human leukemia and lymphoma for enhanced PROTAC delivery” (Eur J Med Chem, 2024) come the findings set out here.

Data set [1] can be described thus: Drug uptake in human KU812 cells assessed as perinuclear distribution and colocalization with nucleus at 10 umol/L incubated for 2 hrs by confocal laser microscopy. The following applies: ku812, 2 h, 10 µM, dose 10 µmol/L. In kind it is ADME, cell-based.
Data set [2] is described as follows: Drug uptake in human CCRF-CEM cells assessed as perinuclear distribution and colocalization with nucleus at 10 umol/L incubated for 2 hrs by confocal laser microscopy. In kind it is ADME, cell-based. The following applies: 10 µM, dose 10 µmol/L.
A short description of data set [3]: Drug uptake in human CCRF-CEM cells assessed as increase in fluorescence intensity at 1 to 10 uM incubated for 2 hrs by flow cytometry. Type of data set: ADME, cell-based. The following applies: dose 1-10 µM.
Data set [4] in a line: Drug uptake in human CCRF-CEM cells assessed as increase in fluorescence intensity at 1 to 10 umol/L incubated for 2 hrs by cell imaging based fluorescence microscopic analysis. In kind it is ADME. The following applies: dose 1-10 µmol/L.
Data set [5] can be described thus: Drug uptake in human CCRF-CEM cells assessed as increase in fluorescence intensity at 5 umol/L measured for 60 to 240 mins by flow cytometry. Type of data set: ADME, cell-based. The following applies: 5 µM, TDE = time-dependent effect, time 60-240 min, dose 5 µmol/L. A general note: Flow cytometry measures light scatter and fluorescence of single cells or particles in a stream.

A short description of data set [6]: Drug uptake in human THP-1 cells assessed as increase in fluorescence intensity at 10 umol/L incubated for 2 hrs by cell imaging based fluorescence microscopic analysis. Type of data set: ADME. The following applies: thp-1, 2 h, 10 µM, dose 10 µmol/L.
A short description of data set [7]: Drug uptake in human CCRF-CEM cells assessed as increase in fluorescence intensity at 5 umol/L measured for 5 to 60 mins by flow cytometry. The following applies: 5 µM, time 5-60 min, dose 5 µmol/L. Type of data set: ADME, cell-based.
The nature of data set [8]: Drug uptake in human CCRF-CEM cells assessed as membrane penetration by measuring increase in fluorescence intensity at 5 umol/L incubated for 2 hrs by flow cytometry relative to C9C. In kind it is ADME, cell-based. The following applies: 5 µM, dose 5 µmol/L.
A short description of data set [9]: Drug uptake in human K562 cells assessed as perinuclear distribution and colocalization with nucleus at 10 umol/L incubated for 2 hrs by confocal laser microscopy. Type of data set: ADME, cell-based. The following applies: k562, 2 h, 10 µM, dose 10 µmol/L.
The nature of data set [10]: Stability of the compound in fetal bovine serum assessed as parent compound remaining measured after 12 hrs by HPLC-MS analysis. In kind it is ADME, cell-free, Bos taurus. The following applies: cattle, read-out: Stability.
Data set [11] can be described thus: Cytotoxicity against human K562 cells assessed as cell viability at 0.01 to 100 uM incubated for 48 hrs by MTT assay. The following applies: dose 0.01-100 µM, read-out: Activity. In kind it is toxicity, cell-based. (Tetrazolium dyes change colour on reduction, which living cells bring about.)
Data set [12] concerns K562. Description: Induction of apoptosis in human K562 cells assessed as necrotic cells at PROTAC to compound concentration ratio of 1:5 incubated for 48 hrs in presence of 3 umol/L IMA-PROTAC by AnnexinV-FITC/PI staining based flow cytometry (reference value: 0.1%). Type of data set: functional.
The nature of data set [13]: Interaction with IMA-PROTAC assessed as induction of assembly formation by transmission electron microscopy. In kind it is physicochemical.
The subject of data set [14] is K562. Description: Increase in membrane permeability of IMA-PROTAC in human K562 cells assessed as potentiation of IMA-PROTAC-induced Bcr-Abl degradation at PROTAC to compound concentration ratio of 1:3 incubated for 48 hrs in presence of 3 umol/L IMA-PROTAC by western blot analysis. Type of data set: functional, cell-based. In general terms: A western blot detects proteins with antibodies after separation by electrophoresis.

Data set [15] in a line: Stability of the compound in fetal bovine serum assessed as parent compound remaining measured after 36 hrs by HPLC-MS analysis. In kind it is ADME, cell-free, Bos taurus. The following applies: cattle, read-out: Stability.
The subject of data set [16] is K562. The data set can be described thus: Increase in membrane permeability of IMA-PROTAC in human K562 cells assessed as potentiation of IMA-PROTAC-induced inhibition of STAT5 phosphorylation at PROTAC to compound concentration ratio of 1:5 incubated for 48 hrs in presence of 3 umol/L IMA-PROTAC by western blot analysis. In kind it is functional, cell-based.
Data set [17] is described as follows: Cytotoxicity against human THP-1 cells assessed as reduction in cell viability at higher concentrations incubated for 48 hrs by MTT assay. Type of data set: toxicity, cell-based. The following applies: read-out: INH.
Data set [18] in a line: Increase in membrane permeability of IMA-PROTAC in human K562 cells assessed as potentiation of IMA-PROTAC-induced Bcr-Abl degradation at PROTAC to compound concentration ratio of 1:5 incubated for 48 hrs in presence of 3 umol/L IMA-PROTAC by western blot analysis (reference value: 40%). In kind it is functional.
Data set [19] is described as follows: Interaction with IMA-PROTAC assessed as induction of formation of micelle cluster with uniform and distinct spherical morphology by transmission electron microscopy. In kind it is physicochemical.
Data set [20] in a line: Cytotoxicity against human KU812 cells assessed as cell viability at 0.01 to 100 uM incubated for 48 hrs by MTT assay. In kind it is toxicity, cell-based. The following applies: dose 0.01-100 µM, read-out: Activity.
The test system of data set [21] is K562. The data set can be described thus: Induction of apoptosis in human K562 cells assessed as viable cells at PROTAC to compound concentration ratio of 1:5 incubated for 48 hrs in presence of 3 umol/L IMA-PROTAC by AnnexinV-FITC/PI staining based flow cytometry (reference value: 99.85%). In kind it is functional.
Data set [22] can be described thus: Stability of the compound in fetal bovine serum assessed as parent compound remaining measured after 8 hrs by HPLC-MS analysis. In kind it is ADME, cell-free, Bos taurus. The following applies: cattle, read-out: Stability.
Data set [23] deals with K562. Description: Induction of apoptosis in human K562 cells assessed as early apoptotic cells at PROTAC to compound concentration ratio of 1:5 incubated for 48 hrs in presence of 3 umol/L IMA-PROTAC by AnnexinV-FITC/PI staining based flow cytometry (reference value: 0.03%). In kind it is functional.
Data set [24] relates to K562. Description: Induction of apoptosis in human K562 cells assessed as late apoptotic cells at PROTAC to compound concentration ratio of 1:5 incubated for 48 hrs in presence of 3 umol/L IMA-PROTAC by AnnexinV-FITC/PI staining based flow cytometry (reference value: 0.01%). Type of data set: functional.
Data set [25] is described as follows: Cytotoxicity against human CCRF-CEM cells assessed as cell viability at 0.01 to 100 uM incubated for 48 hrs by MTT assay. The following applies: dose 0.01-100 µM, read-out: Activity. Type of data set: toxicity, cell-based.

Active and inactive are the calls of the source. No cut-off for these calls is given here. Peptide text beside a SMILES is read from it. A value given as a limit tells only on which side of the number the result lay.

For `CC(C)C[C@@H]1NC(=O)[C@H](Cc2csc3ccccc23)NC(=O)[C@@H](Cc2ccccc2)NC(=O)[C@H](Cc2ccccc2)NC(=O)[C@H](CCCNC(=N)N)NC(=O)[C@H](CCCCN)NC(=O)[C@H](CCC(=O)O)NC(=O)[C@H](CO)NC(=O)[C@H](CCCNC(=N)N)NC1=O`, the Drug uptake entry in data set [1] is “Active”; in data set [2] it was “Active”; in [3], “Dose-Dependent Effect”; in data set [4] it was “Active”; in data set [5], “Tde”; in [6], “Active”. The Drug uptake result in data set [7] and in [9] was “Active” throughout. The “fold change (FC)” value in data set [8] was determined as 2.97.
On to `CC(C)C[C@H](NC(=O)[C@H](Cc1c[nH]c2ccccc12)NC(=O)[C@H](Cc1ccc(O)cc1)NC(=O)[C@H](Cc1ccccc1)NC(=O)CNC(=O)[C@@H](N)CS)C(=O)N[C@@H](CCCNC(=N)N)C(=O)N[C@@H](CO)C(=O)N[C@@H](CS)C(=O)O` (H-CGFYWLRSC-OH), for which the remaining at 12 h in [10] is 80%. Besides, the viability at 48 h, up to 100 µM in data set [11], in [20] and in [25] was above 75% each time. The Activity was 0.09% in the data set on K562 [12]; “Not Active” in data set [13]; 60% in data set [18]; “Not Active” in data set [19]; 86.18% with K562 [21]; 6.26% in the data set on K562 [23]. Further, the Activity in the data set on K562 [24] is 7.46%. Besides, the Drug uptake result in data set [6] is on record as “Active”. Besides, the outcome in the data set with K562 [14] and with K562 [16] was Active. Moreover, the remaining at 36 h in data set [15] stood at 35%. The cytotoxicity at 48 h in data set [17] was around 50%. Further, the remaining at 8 h in data set [22] was 100%.
